Test results published in patent publication US8362033B1, “Compounds and methods to dysregulate CA2+ homeostasis for cancer treatment” (University of South Florida, priority 2008, dated 2013).
Read-outs that look alike come from different tables or passages of the source.

Columns and labels:
[1] = tested on: 8226 cells; test: Fura-2 intracellular Ca2+ fluorometry in 8226 cells; type: cell-based, human
Procedure: (§1) Fura-2 loading was carried out incubating the plated cells for 1 hour at room temperature in physiological saline solution (PSS) consisting of (in mM): 140 NaCl, 3 KCl, 2.5 CaCl2, 1.2 MgCl2, 7.7 glucose and 10 HEPES (pH to 7.2 with NaOH), which also contained 1 μM of the membrane permeable ester form of fura-2, acetoxymethylester (fura-2 AM) fura-2 acetoxymethylester (fura-2 AM, +0.1% DMSO) and 0.1% dimethyl sulfoxide (DMSO). The coverslips were then washed in PSS (fura-2-AM free) prior to the experiments being carried out.
(§2) A DG-4 high-speed wavelength switcher (Sutter Instruments Co., Novato, Calif.) was used to apply alternating excitation light, and fluorescent emission was captured using a Sensicam digital CCD camera (Cooke Corporation, Auburn Hills, Mich.) and recorded with Slidebook 3.0 software (Intelligent Imaging Innovations, Denver, Colo.).

[2] = tested on: 8226/R5 cells; test: Fura-2 intracellular Ca2+ fluorometry in tipifarnib-resistant 8226/R5 cells; type: cell-based, human; conditions: 5 μM tipifarnib with 100 μM 2-APB
Procedure: as §1, §2

[3] = tested on: U937 cells; test: MTT cytotoxicity / growth rate assay; type: cell-based
Procedure: Cytotoxicity analysis was determined by using the 3-(4,5-dimethylthiazol-2-yl)-2,5-diphenyltetrazolium bromide (MTT) dye reduction assay as previously described (Damiano J S, et al. Cell adhesion mediated drug resistance (CAM-DR): role of integrins and resistance to apoptosis in human myeloma cell lines. Blood. 1999 Mar. 1; 93(5):1658-67). For all cytotoxicity studies cells were exposed to both calcium modulating agents and tipifarnib simultaneously for 72 hours. After 72 hours at 37° C., 50 μl of MTT (Sigma Chemical) was added to each well and cells were incubated for an additional four hours. Plates were spun for 5 minutes at 1200 rpm in a Sorvall RT6000D table top centrifuge (Asheville, N.C.), supernatants were removed, and water-insoluble product was dissolved in 100 μl of 100% DMSO. Plates were shaken for 30 seconds and absorbance read at 540 nm on a Wallac Victor-2 1420 Multilabel Counter (PerkinElmer, Torrance, Calif.). All experiments were done in triplicate.
The effects of the Ca^2+ channel inhibition, using La^3+ and Gd^3+, were tested on survival of U937 cells.

[4] = tested on: TRPM2; conditions: cited from earlier work
[5] = biological target: T1, TRPM7 (Homo sapiens, UniProt Q96QT4); conditions: cited from earlier work; for Inhibition of TRPM7 channels at 10 μM / Concentration required to inhibit TRPM7: HEK-293 cells
T1 construct: host or cells: HEK-293 (heterologous expression, in the cited studies)
T1 sequence (Q96QT4 whole entry, species assumed): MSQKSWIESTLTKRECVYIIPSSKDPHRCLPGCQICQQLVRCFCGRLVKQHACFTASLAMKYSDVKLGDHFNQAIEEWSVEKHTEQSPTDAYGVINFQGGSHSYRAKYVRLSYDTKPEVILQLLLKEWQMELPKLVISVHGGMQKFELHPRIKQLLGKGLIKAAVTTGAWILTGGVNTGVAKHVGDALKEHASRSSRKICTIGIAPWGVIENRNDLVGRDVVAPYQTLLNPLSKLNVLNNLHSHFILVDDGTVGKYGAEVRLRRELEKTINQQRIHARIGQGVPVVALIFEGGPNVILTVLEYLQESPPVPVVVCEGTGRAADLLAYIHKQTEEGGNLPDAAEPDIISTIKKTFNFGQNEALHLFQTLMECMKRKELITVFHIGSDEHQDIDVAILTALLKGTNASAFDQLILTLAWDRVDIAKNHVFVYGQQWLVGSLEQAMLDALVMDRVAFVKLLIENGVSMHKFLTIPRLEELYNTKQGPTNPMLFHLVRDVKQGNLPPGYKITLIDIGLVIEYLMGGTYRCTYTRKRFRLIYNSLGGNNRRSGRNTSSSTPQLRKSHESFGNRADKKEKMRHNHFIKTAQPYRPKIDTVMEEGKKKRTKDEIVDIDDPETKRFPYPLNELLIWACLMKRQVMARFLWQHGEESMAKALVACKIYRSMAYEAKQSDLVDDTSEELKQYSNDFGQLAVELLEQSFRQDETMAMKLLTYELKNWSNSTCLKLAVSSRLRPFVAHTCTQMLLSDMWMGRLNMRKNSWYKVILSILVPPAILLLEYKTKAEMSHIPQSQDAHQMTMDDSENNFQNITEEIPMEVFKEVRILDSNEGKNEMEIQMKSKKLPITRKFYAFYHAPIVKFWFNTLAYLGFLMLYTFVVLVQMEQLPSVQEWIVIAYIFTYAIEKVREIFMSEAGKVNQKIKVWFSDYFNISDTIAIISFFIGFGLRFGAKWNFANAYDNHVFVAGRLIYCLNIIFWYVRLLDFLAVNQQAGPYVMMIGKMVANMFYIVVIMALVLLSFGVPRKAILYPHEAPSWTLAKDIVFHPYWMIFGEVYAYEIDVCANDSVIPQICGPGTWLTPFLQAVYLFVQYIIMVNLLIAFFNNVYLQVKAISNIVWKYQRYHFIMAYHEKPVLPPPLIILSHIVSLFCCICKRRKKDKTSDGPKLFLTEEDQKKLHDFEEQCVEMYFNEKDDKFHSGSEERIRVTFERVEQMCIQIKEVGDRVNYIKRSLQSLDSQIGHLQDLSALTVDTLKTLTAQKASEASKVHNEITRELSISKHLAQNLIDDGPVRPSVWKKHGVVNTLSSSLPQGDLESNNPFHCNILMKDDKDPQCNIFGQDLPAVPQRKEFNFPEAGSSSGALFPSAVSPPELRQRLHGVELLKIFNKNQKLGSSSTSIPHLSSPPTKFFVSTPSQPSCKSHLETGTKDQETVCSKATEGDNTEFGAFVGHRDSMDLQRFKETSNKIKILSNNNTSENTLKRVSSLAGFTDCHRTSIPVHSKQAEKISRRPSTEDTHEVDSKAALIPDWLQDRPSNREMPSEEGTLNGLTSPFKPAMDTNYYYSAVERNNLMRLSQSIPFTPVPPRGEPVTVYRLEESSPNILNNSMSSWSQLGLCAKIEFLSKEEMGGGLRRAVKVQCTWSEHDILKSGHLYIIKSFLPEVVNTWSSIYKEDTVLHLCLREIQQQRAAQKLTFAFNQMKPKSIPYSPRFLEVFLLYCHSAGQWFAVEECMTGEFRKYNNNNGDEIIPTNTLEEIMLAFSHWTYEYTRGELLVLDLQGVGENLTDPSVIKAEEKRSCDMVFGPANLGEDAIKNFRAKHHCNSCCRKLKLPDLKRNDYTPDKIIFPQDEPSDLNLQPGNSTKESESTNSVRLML

[6] = biological target: Orai 1 channels (Homo sapiens, UniProt Q96D31); conditions: endogenously and exogenously expressed; cited from earlier work
Sequence of Orai 1 channels (Q96D31 whole entry): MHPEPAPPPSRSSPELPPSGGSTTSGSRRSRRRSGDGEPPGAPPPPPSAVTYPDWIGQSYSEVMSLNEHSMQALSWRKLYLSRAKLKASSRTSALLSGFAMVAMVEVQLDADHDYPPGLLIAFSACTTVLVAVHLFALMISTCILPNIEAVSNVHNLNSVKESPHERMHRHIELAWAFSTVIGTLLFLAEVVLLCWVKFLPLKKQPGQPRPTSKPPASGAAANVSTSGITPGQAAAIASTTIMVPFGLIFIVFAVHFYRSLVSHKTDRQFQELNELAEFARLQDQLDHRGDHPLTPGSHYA

[7] = biological target: Orai2 (Homo sapiens, UniProt Q96SN7); conditions: cited from earlier work
Sequence of Orai2 (Q96SN7 whole entry, species assumed): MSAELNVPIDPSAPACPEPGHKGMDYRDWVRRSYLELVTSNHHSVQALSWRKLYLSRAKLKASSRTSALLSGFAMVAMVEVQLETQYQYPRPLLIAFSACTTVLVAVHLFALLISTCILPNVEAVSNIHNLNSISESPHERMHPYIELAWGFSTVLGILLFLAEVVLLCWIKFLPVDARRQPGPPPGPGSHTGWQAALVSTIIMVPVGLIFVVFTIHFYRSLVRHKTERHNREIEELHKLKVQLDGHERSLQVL

[8] = biological target: Orai3 channels (Homo sapiens, UniProt Q9BRQ5); conditions: up to 200 μM; cited from earlier work
[9] = tested on: U937 cells; test: Cell death by ER stressors in suspension or fibronectin-adhered U937 cells; type: cell-based; conditions: for Cell death in suspension and fibronectin adhered tumor cells: FIGS. 2(a)-(c); for Difference in viability between suspension and fibronectin-adherent cells: concentration range tested
Procedure: FIGS. 2(a)-(c) are graphs showing agents which evoke ER stress overcome cell adhesion mediated drug resistance in U937 cells. Percent of specific cell death induced in U937 cells in suspension (Suspension) or following adhesion to plates coated in fibronectin (Fibronectin) as a result of incubation in (A) tunicamycin, (B) thapsigargin, or (C) brefeldin A at the indicated concentrations.

[10] = tested on: U937 cells; test: Fura-2 intracellular Ca2+ fluorometry in adhered U937 cells; conditions: 5 μM tipifarnib, 10 μM FTI-277, 10 μM FTI-2153
Procedure: as §1, §2
(§3) Therefore, the effects of tipifarnib on intracellular Ca^2+ concentrations in tumor cells were studied in adhered U937 leukemic cells using fura-2 mediated Ca^2+ fluorometry.

[11] = tested on: U937 cells; conditions: 5 μM tipifarnib, adhered U937 cells, p<0.001
Procedure: as §1, §2, §3

Molecule: NCCOB(c1ccccc1)c1ccccc1 [2-APB, 2-aminoethoxydiphenyl borate]
- Amplification of tipifarnib-evoked increase in [Ca2+]i by 2-APB ([1]; 8226 cells, 5 μM tipifarnib with 100 μM 2-APB): ~400%
- Amplification of tipifarnib-evoked increase in [Ca2+]i by 2-APB [2]: ~250%
- Effect of modulator on tipifarnib-induced growth inhibition / cell survival [3]: enhanced cell death
- Block of TRPM2 channels at 150 μM (second study) ([4]; HEK-293 cells, 150 μM 2-APB): not blocked
- IC50 ([4]; heterologously expressed in HEK-293 cells, read-out: IC50 for block of TRPM2 channels): 1 µM
- Block of TRPM7-evoked currents ([5]; 100 μM 2-APB): ~25%
- Modulation of Orai1 channels by 2-APB [6]: potentiated at concentrations of 2-APB below 5 μM but inhibited by higher concentrations
- Modulation of Orai2 by 2-APB [7]: transient potentiation at concentrations of 2-APB≦20 μM and also blocked by higher concentrations
- Modulation of Orai3 channels by 2-APB [8]: potentiated by 2-APB even at 50 μM and do not seem to be blocked by concentrations as high as 200 μM

Molecule: C[C@H]1CCC/C=C/[C@@H]2C[C@H](O)C[C@H]2[C@H](O)/C=C/C(=O)O1 [Brefeldin A]
- Cell death in suspension and fibronectin adhered tumor cells [9]: dose dependent increase in cell death
- Difference in viability between suspension and fibronectin-adherent cells [9]: no significant difference

Molecule: COC(=O)[C@H](CCSC)NC(=O)c1ccc(NC[C@@H](N)CS)cc1-c1ccccc1 [FTI-277]
- Elevation of [Ca2+]i [10]: failed to stimulate elevations in [Ca^2+]i

Molecule: [Gd+3] [Gd^3+]
- Inhibition of TRPM7 channels at 10 μM [5]: failed to inhibit TRPM7 channels
- Concentration required to inhibit TRPM7 [5]: 1 mM

Molecule: [Cl][La]([Cl])[Cl] [La^3+, lanthanum chloride]
- Effect of modulator on tipifarnib-induced growth inhibition / cell survival ([3]; U937 cells, MTT, 72 hours, 200 nM La3+, Gd3+ 100, ruthenium red 100 nM, 2-APB 5 μM and 100 μM): statistically significant increase in survival of U937 cells
- Inhibition of TRPM2 channels ([4]; La3+ ≦100 μM): not inhibited
- Inhibition of TRPM7 channels at 10 μM [5]: failed to inhibit TRPM7 channels
- Concentration required to inhibit TRPM7 [5]: 1 mM

Molecule: C/C=C(/C)C(=O)O[C@H]1C(C)=C2[C@H]([C@@H]1OC(=O)CCCCCCC)[C@@](C)(OC(C)=O)C[C@H](OC(=O)CCC)[C@@]1(O)[C@H]2OC(=O)[C@@]1(C)O [thapsigargin]
- Cell death in suspension and fibronectin adhered tumor cells [9]: dose dependent increase in cell death
- Difference in viability between suspension and fibronectin-adherent cells [9]: no significant difference

Molecule: Cn1cncc1[C@@](N)(c1ccc(Cl)cc1)c1ccc2c(c1)c(-c1cccc(Cl)c1)cc(=O)n2C [tipifarnib, Tipifarnib]
- Amplitude of the [Ca2+]i response ([1]; 5 µM): 215 ± 17 nM
- Change in [Ca2+]i in 8226 cells, greater than in 8226/R5 cells ([1]; 5 μM tipifarnib): > 250%
- Increase in [Ca2+]i relative to vehicle alone (DMSO) [11]: more than 5 fold

Molecule: tunicamycin
- Cell death in suspension and fibronectin adhered tumor cells [9]: dose dependent increase in cell death
- Difference in viability between suspension and fibronectin-adherent cells [9]: no significant difference
